Among the data in US8486961B2, “Pyrrolo[4,3,2-de]quinolin-8-amine compounds and methods of their preparation and use” (Wyeth LLC, priority 2008, dated 2013) are IC50 values, retold here.

One experiment deals with MDA468 cells. In words: In vitro cell growth assay (MTS), MDA468. Type of experiment: cell-based, human. The method, then: (§1) Cells of human tumor lines LNCap and MDA468 were plated in 96-well culture plates at approximately 3000 cells per well. One day following plating, various doses of mTOR inhibitors were added to cells. Three days after drug treatment, viable cell densities were determined by metabolic conversion (by viable cells) of the dye MTS, a well-established cell proliferation assay. The assays were performed using an assay kit purchased from Promega Corp. (Madison, Wis.) following the protocol supplied with the kit. The MTS assay results were read in a 96-well plate reader by measuring absorbance at 490 nm. The effect of each treatment was calculated as percent of control growth relative to the vehicle-treated cells grown in the same culture plate. The drug concentration that conferred 50% inhibition of growth was determined as IC50 (μM).

A further experiment has as its target T1, mTOR (Homo sapiens, UniProt P42345).
T1 construct: FLAG
In words: mTOR kinase assay (DELFIA, purified enzyme). Type of experiment: biochemical. The following applies: purified FLAG-TOR, 100 μM ATP, His6-S6K substrate; * = compounds 4 and 5 screened as a mixture. How it is done: The routine human TOR assays with purified enzyme were performed in 96-well plates by DELFIA format as follows. Enzymes were first diluted in kinase assay buffer (10 mM Hepes (pH 7.4), 50 mM NaCl, 50 mM β-glycerophosphate, 10 mM MnCl2, 0.5 mM DTT, 0.25 μM microcystin LR, and 100 μg/mL BSA). To each well, 12 μL of the diluted enzyme were mixed briefly with 0.5 μL test inhibitor or control vehicle dimethylsulfoxide (DMSO). The kinase reaction was initiated by adding 12.5 μL kinase assay buffer containing ATP and His6-S6K to give a final reaction volume of 25 μL containing 800 ng/mL FLAG-TOR, 100 μM ATP and 1.25 μM His6-S6K. The reaction plate was incubated for 2 hours (linear at 1-6 hours) at room temperature with gentle shaking and then terminated by adding 25 μL Stop buffer (20 mM Hepes (pH 7.4), 20 mM EDTA, 20 mM EGTA). The DELFIA detection of the phosphorylated (Thr-389) His6-S6K was performed at room temperature using a monoclonal anti-P(T389)-p70S6K antibody (1A5, Cell Signaling) labeled with Europium-N1-ITC (Eu) (10.4 Eu per antibody, PerkinElmer). The DELFIA Assay buffer and Enhancement solution were purchased from PerkinElmer. 45 μL of the terminated kinase reaction mixture was transferred to a MaxiSorp plate (Nunc) containing 55 μL PBS. The His6-S6K was allowed to attach for 2 hours after which the wells were aspirated and washed once with PBS. 100 μL of DELFIA Assay buffer with 40 ng/mL Eu-P(T389)—S6K antibody was added. The antibody binding was continued for 1 hour with gentle agitation. The wells were then aspirated and washed 4 times with PBS containing 0.05% Tween-20 (PBST). 100 μL of DELFIA Enhancement solution was added to each well and the plates were read in a PerkinElmer Victor model plate reader. Data obtained were used to calculate enzymatic activity and enzyme inhibition by potential inhibitors. mTOR IC50 data (reported in μM) is provided in Table 1.

The test system of the next experiment is LNCap cells. In words: In vitro cell growth assay (MTS), LNCap. Type of experiment: cell-based, human. The method, then: as §1
Setting [1] is: 72 h, MDA468 human tumor line, 3 days treatment, MTS, * = compounds 4 and 5 screened as a mixture, read-out: MDA 468 IC50.
The mark [2] stands for this setting: 72 h, LNCap human tumor line, 3 days treatment, MTS, * = compounds 4 and 5 screened as a mixture.
Where [3] appears, read: Homo sapiens, LNCap cell growth.

Like-named read-outs stand apart in the source and are kept apart here.

Take `CCC(=O)Nc1cc(N)c2c3c(cc(C(=O)/C=C/OC)nc13)C=N2` [Compound 1, (E)-N-(8-amino-4-(3-methoxyacryloyl)pyrrolo[4,3,2-de]quinolin-6-yl)-propionamide]: the IC50 in the experiment with MDA468 cells (setting [1]) was 85 nM; in the experiment with MDA468 cells (Homo sapiens, Example 8), 50 to 800 nM; on mTOR, 1.5 nM; in the experiment on LNCap cells (setting [2]), 48 nM; with LNCap cells (setting [3]), 20 to 300 nM.
Turning to `CC(C)C(=O)Nc1cc(N)c2c3c(cc(C(=O)CCO)nc13)C=N2` [Compound 6, N-(8-amino-4-(3-hydroxypropanoyl)pyrrolo[4,3,2-de]quinolin-6-yl)isobutyramide], the IC50 in the experiment with MDA468 cells (setting [1]) was 1200 nM; at mTOR, above 4000 nM; with LNCap cells (setting [2]), 6500 nM.
For `CCC(C)C(=O)Nc1cc(N)c2c3c(cc(C(=O)CCO)nc13)C=N2` (stereo not drawn) [Compound 9, N-(8-amino-4-(3-hydroxypropanoyl)pyrrolo[4,3,2-de]quinolin-6-yl)-2-methylbutanamide], the IC50 in the experiment with MDA468 cells (setting [1]) is 7600 nM; at mTOR, 3200 nM; in the experiment on LNCap cells (setting [2]), 10000 nM.
For the compound `CO/C=C/C(=O)c1cc2c3c(c(N)cc(NC(=O)CC(C)C)c3n1)N=C2` [Compound 4, (E)-N-(8-amino-4-(3-methoxyacryloyl)pyrrolo[4,3,2-de]quinolin-6-yl)-3-methylbutanamide], the IC50 in the experiment on MDA468 cells (setting [1]) is 700 nM; with MDA468 cells (Homo sapiens, Example 8) it was 50 to 800 nM; on mTOR, 1.8 nM; in the experiment on LNCap cells (setting [2]), 230 nM; with LNCap cells (setting [3]) it was 20 to 300 nM.
With `CCCC(=O)Nc1cc(N)c2c3c(cc(C(=O)CCO)nc13)C=N2` [Compound 3, N-(8-amino-4-(3-hydroxypropanoyl)pyrrolo[4,3,2-de]quinolin-6-yl)butyramide], the results for the IC50 in the experiment on MDA468 cells (setting [1]), on mTOR and with LNCap cells (setting [2]) were above 12000 nM, above 4000 nM and above 12000 nM, respectively.
`CCC(=O)Nc1cc(N)c2c3c(cc(C(=O)CCO)nc13)C=N2` [Compound 7, N-(8-amino-4-(3-hydroxypropanoyl)pyrrolo[4,3,2-de]quinolin-6-yl)propionamide]: the IC50 was 400 nM in the experiment on MDA468 cells (setting [1]), above 4000 nM on mTOR and 5000 nM in the experiment with LNCap cells (setting [2]).
As for `CC(C)CC(=O)Nc1cc(N)c2c3c(cc(C(=O)CCO)nc13)C=N2` [Compound 8, N-(8-amino-4-(3-hydroxypropanoyl)pyrrolo[4,3,2-de]quinolin-6-yl)-3-methylbutanamide], the IC50 in the experiment with MDA468 cells (setting [1]) is 3500 nM; on mTOR, 1500 nM; in the experiment on LNCap cells (setting [2]), 2900 nM.
`CO/C=C/C(=O)c1cc2c3c(c(N)cc(NC(=O)C(C)C)c3n1)N=C2` [Compound 2, (E)-N-(8-amino-4-(3-methoxyacryloyl)pyrrolo[4,3,2-de]quinolin-6-yl)isobutyramide]: the IC50 with MDA468 cells (setting [1]) was 58 nM; in the experiment with MDA468 cells (Homo sapiens, Example 8), 50 to 800 nM; at mTOR, 0.8 nM; with LNCap cells (setting [2]), 22 nM; with LNCap cells (setting [3]), 20 to 300 nM.
Take `CCC(C)C(=O)Nc1cc(N)c2c3c(cc(C(=O)/C=C/OC)nc13)C=N2` (stereo not drawn) [Compound 5, (E)-N-(8-amino-4-(3-methoxyacryloyl)pyrrolo[4,3,2-de]quinolin-6-yl)-2-methylbutanamide]: the IC50 worked out at 700 nM in the experiment with MDA468 cells (setting [1]), 1.8 nM at mTOR and 230 nM in the experiment on LNCap cells (setting [2]).
